Results on 2 compounds are retold here after patent US20220213119A1, “THIENOHETEROCYCLIC DERIVATIVE, PREPARATION METHOD THEREFOR AND MEDICAL USE THEREOF” (Jiangsu Hengrui Medicine Ca, Lid., priority 2019, published 2022).

Data set [1] is described as follows: Pharmacokinetics assay in mice. Conditions: mouse, po, C57 mice (female), intragastric, 2 mg/kg, plasma; for Vd/F: read-out: Apparent distribution volume Vz/F; for AUC: read-out: Area under curve AUC; for CL/F: read-out: Clearance CLz/F; for half-life: read-out: Half Life T1/2 (converted); for Cmax: read-out: Plasma Concentration Cmax; for MRT: read-out: Residence Time MRT. The data set is classed as in vivo. On the procedure: Mice were used as the test animal. The drug concentration in plasma at different time points was determined by LC/MS/MS method after administration of compound 3-P2, compound 4-P2, compound 9-P2, compound 10-P2, compound 12 and compound 15. The pharmacokinetic behavior of the compounds of the present disclosure in mice was studied, and the pharmacokinetic characteristics were evaluated.
54 of C57 mice (female) were equally divided into 6 groups, which were purchased from Shanghai Jiesijie Laboratory Animal Co., Ltd., with the animal production license number: SOCK (Shanghai) 2013-0006.
A certain amount of compound was weighted, followed by the addition of 5% volume of DMSO and 5% Tween 80 to dissolve it, then followed by the addition of 90% normal saline to prepare a colorless and clear solution of 0.1 mg/mL.
After an overnight fast, C57 mice were intragastrically administered the test compound at an administration dose of 2 mg/kg and an administration volume of 0.2 ml/10 g.
The mice were intragastrically administered the test compounds. 0.1mL of blood was taken before the administration and at 0.25, 0.5, 1.0, 2.0, 4.0, 6.0, 8.0, 11.0, 24.0 hours after the administration. The blood was placed in a heparinized test tube, and centrifuged at 3500 rpm for 10 minutes. The plasma was separated and stored at −20° C.
The content of the test compound in the plasma of mice after […] administration of the test compound at different concentrations was determined: 25 μl of mouse plasma at each time point after the administration was taken, followed by the addition of 50 μl of the internal standard camptothecin solution (100 ng/mL) and 200 μl of acetonitrile. The resulting solution was vortex-mixed for 5 minutes, and centrifuged for 10 minutes (4000 rpm). 4μl of the supernatant was taken from the plasma samples for LC/MS/MS analysis.

For data set [2], the target named is T1, ERK2 (Homo sapiens, UniProt P28482).
T1 construct: purchased R&D 1230-KS-010
T1 sequence (P28482 whole entry): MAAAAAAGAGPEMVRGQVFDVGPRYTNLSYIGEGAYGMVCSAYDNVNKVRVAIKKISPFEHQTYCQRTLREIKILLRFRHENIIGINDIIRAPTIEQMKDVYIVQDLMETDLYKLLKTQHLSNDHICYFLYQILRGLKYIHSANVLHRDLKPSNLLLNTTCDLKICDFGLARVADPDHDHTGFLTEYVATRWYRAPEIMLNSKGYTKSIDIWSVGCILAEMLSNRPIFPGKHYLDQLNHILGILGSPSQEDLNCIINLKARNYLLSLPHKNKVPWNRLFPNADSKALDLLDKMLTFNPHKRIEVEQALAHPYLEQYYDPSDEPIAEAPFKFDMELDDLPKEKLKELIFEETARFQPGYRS
The experiment in a line: ERK2 enzyme activity test (ADP-Glo Kinase Assay). In kind it is biochemical. The settings on record: chemiluminescence. On the procedure: (§1) The purpose of this experiment is to detect the inhibitory ability of the compounds on the ERK2 enzyme activity and evaluate the activity of the compounds in vitro according to IC50. The ADP-Glo™ Kinase Assay Kit was used in this experiment. Under the action of enzyme, the substrate was phosphorylated and ADP was produced at the same time. The ADP-Glo Reagent was added to remove unreacted ATP in the reaction system. The kinase detection reagent was used to detect the ADP produced by the reaction. In the presence of the compound, the inhibition rate of the compound was calculated by measuring the signal value.
Enzyme and substrate preparation: ERK2 (1230-KS-010, R&D) and substrate (Custom peptides, Gill Biochemical) were prepared to be 0.75 ng/μl and 1500 μM in the buffer (40 mM Tris, 20 mM MgCl2, 0.1 mg/mL BSA, 50 μM DTT). The enzyme solution and substrate solution were then prepared into a mixed solution at a volume ratio of 2:1 for later use. ATP was diluted to 500 μM with the buffer. The compounds were dissolved in DMSO (dimethyl sulfoxide, Shanghai Titan Scientific Co., Ltd.) to prepare a stock solution with an initial concentration of 20 mM, and then Bravo was used to prepare solutions of the compounds. Finally, a 3 μL of a mixed solution of enzyme and substrate, and 1 μL of different concentrations of the compound (the initial concentration is 50 μM, 4-fold dilution) were added to each well of the 384-well plate, and the plate was incubated at 30° C. for 10 minutes, and finally 1 μL of 500 μM ATP solution was added to each well, and the plate was incubated at 30° C. for 2 hours. Then 5 μL of ADP-Glo was added, and the plate was incubated at 30° C. for 40 minutes. Then 10 μL of Kinase detection buffer was added, and the plate was incubated at 30° C. for 40 minutes. The 384-well plate was taken out and placed in a microplate reader (BMG labtech, PHERAstar FS), and the chemiluminescence was measured by the microplate reader.
(§2) The data were processed and analyzed with Microsoft Excel, Graphpad Prism 5.
For orientation: In ADP-Glo the light output rises with the ADP produced.

Data set [3] has as its system Colo205 cells. The data set is described as follows: In vitro proliferation inhibition test on Colo205 tumor cells (CellTiter-Glo). In kind it is cell-based. Conditions: Homo sapiens, COLO 205, 72 h; Colo205 cell proliferation, 3 days of culture, CTG. How it is done: The purpose of this experiment is to test the inhibitory activity of the compounds on the proliferation of Colo205 cells (CCL-222, ATCC) in vitro. The cells were treated with different concentrations of compounds in vitro. After 3 days of culture, the cell proliferation was detected using CTG (CellTiter-Glo® Luminescent Cell Viability Assay, Promega, catalog number: G7573) reagent. The in vitro activity of the compounds was evaluated according to the IC50 value.
In the following, taking the in vitro proliferation inhibition test method of Colo205 cells as an example, the method in the present disclosure for testing the in vitro proliferation inhibitory activity of the compounds of the present disclosure is described. This method is also applicable to, but not limited to, the in vitro proliferation inhibitory activity test on other tumor cells.
Colo205 cells were digested, centrifuged and then resuspended. The single cell suspension was mixed well, and the density of viable cells was adjusted to 5.0×10^4 cells/ml with cell culture medium (RPMI1640+2% FBS), and 95 μl/well was added to a 96-well cell culture plate. Only 100 μl medium was added to the peripheral wells of the 96-well plate. The culture plate was incubated in an incubator for 24 hours (37° C., 5% CO2).
The compound was dissolved in DMSO (dimethyl sulfoxide, Shanghai Titan Scientific Co., Ltd.) and prepared into a stock solution with an initial concentration of 20 mM. The initial concentration of the small molecule compound is 2 mM, and then 4-fold diluted into to 9 points, and the tenth point is DMSO. Another 96-well plate was taken, 90 μl of cell culture medium (RPMI1640+2% FBS) was added to each well, then 10 μl of different concentrations of the test sample was added to each well, the mixture was mixed well, and then 5 μl of different concentrations of the test sample was added to the cell culture plate, and each sample has two duplicate holes. The culture plate was incubated in the incubator for 3 days (37° C., 5% CO2). The 96-well cell culture plate was taken out, 50 μl CTG solution was added to each well, and the plate was incubated for 10 minutes at room temperature. In a microplate reader (BMG labtech, PHERAstar FS), chemiluminescence was measured with the microplate reader.
as §2

Data set [4] deals with T2, ERK1 (Homo sapiens, UniProt P27361).
T2 construct: purchased R&D 1879-KS-010
T2 sequence (P27361 whole entry): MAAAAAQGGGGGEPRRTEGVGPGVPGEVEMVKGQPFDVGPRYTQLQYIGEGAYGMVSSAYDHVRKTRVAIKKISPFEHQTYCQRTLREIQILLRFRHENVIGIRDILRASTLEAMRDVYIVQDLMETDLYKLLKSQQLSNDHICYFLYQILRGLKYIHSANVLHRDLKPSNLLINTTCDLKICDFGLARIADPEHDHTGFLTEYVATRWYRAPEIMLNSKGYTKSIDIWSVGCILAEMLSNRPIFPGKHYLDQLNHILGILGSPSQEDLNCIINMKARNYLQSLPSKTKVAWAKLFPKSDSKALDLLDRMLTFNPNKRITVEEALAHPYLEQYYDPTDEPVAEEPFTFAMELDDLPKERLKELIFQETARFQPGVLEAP
The experiment in a line: ERK1 enzyme activity test (ADP-Glo Kinase Assay). The data set is classed as biochemical. The settings on record: chemiluminescence. On the procedure: as §1, with “ERK1” for “ERK2”
Enzyme and substrate preparation: ERK1 (1879-KS-010, R&D) and substrate (AS-61777, anaspec) were prepared to be 0.75 ng/μl and 100 μM respectively in the buffer. The enzyme solution and substrate solution were then prepared into a mixed solution at a volume ratio of 2:1 for later use. ATP was diluted to 300 μM with the buffer. The compounds were dissolved in DMSO (dimethyl sulfoxide, Shanghai Titan Scientific Co., Ltd.) to prepare a stock solution with an initial concentration of 20 mM, and then Bravo was used to prepare solutions of the compounds. Finally, a 3 μL of a mixed solution of enzyme and substrate, and 1 μL of different concentrations of the compound (the initial concentration is 50 μM, 4-fold dilution) were added to each well of the 384-well plate, and the plate was incubated at 30° C. for 10 minutes, and finally 1 μL of 300 μM ATP solution was added to each well, and the plate was incubated at 30° C. for 2 hours. Then 5 μL of ADP-Glo was added, and the plate was incubated at 30° C. for 40 minutes. Then 10 μL of Kinase detection buffer was added, and the plate was incubated at 30° C. for 40 minutes. The 384-well plate was taken out and placed in a microplate reader (BMG labtech, PHERAstar FS), and the chemiluminescence was measured by the microplate reader.
as §2

In general, AUC refers to concentration integrated over time. The term MRT denotes a mean duration of stay, worked out from the concentration-time curve. One may read the IC50 as the midpoint of a concentration-inhibition curve. A low value points to higher potency. Turning to `COc1cc(F)cc([C@@H](CO)NC(=O)[C@@H](C)N2CCc3sc(-c4nc(N[C@@H](C)CO)ncc4Cl)cc3C2=O)c1` [Example 12, (R)-2-(2-(5-Chloro-2-(((S)-1-hydroxypropan-2-yl)amino)pyrimidin-4-yl)-4-oxo-6,7-dihydrothieno[3,2-c]pyridin-5(4H)-yl)-N-((S)-1-(3-fluoro-5-methoxyphenyl)-2-hydroxyethyl)prop ionamide], in data set [1], the Vd/F is 4.77 L/kg, the AUC worked out at 1600 ng·h/mL, the CL/F was 20.8 mL/min/kg and the half-life was 2.65 h. Besides, in data set [1], the Cmax was found to be 1480 ng/mL and the MRT was determined as 1.05 h. For the same compound, the IC50 in data set [2] came out at 2 nM. Also, the IC50 in data set [3] was determined as 5 nM. In data set [4], this compound returned an IC50 of 24 nM.
For the compound `COc1cc(F)cc([C@@H](CO)NC(=O)[C@@H](C)N2CCc3sc(-c4ccnc(Nc5ccnn5C)n4)cc3C2=O)c1` [Example 15, (R)-N-((S)-1-(3-Fluoro-5-methoxyphenyl)-2-hydroxyethyl)-2-(2-(2-((1-methyl-1H-pyrazol-5-yl)amino)pyrimidin-4-yl)-4-oxo-6,7-dihydrothieno[3,2-c]pyridin-5(4H)-yl)propionamide], in data set [1], the Vd/F is 1.76 L/kg, the AUC was determined as 1830 ng·h/mL, the CL/F came to 18.2 mL/min/kg and the half-life is 1.11 h. Also, in data set [1], the Cmax turned out to be 1070 ng/mL and the mean residence time MRT was 1.85 h. Moreover, the IC50 in data set [2] is 3 nM. For the same compound, in data set [3], the IC50 was 49 nM. For the same compound, the IC50 in data set [4] was determined as 4 nM.
